# Source: patent US6433178B1, “3-alkyl-3-phenyl-piperidines” (Warner-Lambert Company, priority 1996, dated 2002)
# Experiments:
# human NK1 receptors = target: T1, human NK1 receptors (Homo sapiens, UniProt P25103); assay: Receptor binding in transfected CHO cells (125I-labeled ligand displacement), NK1; conditions: CHO cells expressing human NK1; 0.2 nM 125I-labeled ligand; 1 hour at room temperature
# T1 construct: expressed in transfected cells; host or cells: CHO cells
# Procedure: (§1) 1. Receptor Binding in Transfected CHO Cells
# (§2) CHO cells expressing either human NK1 or NK3 receptors were cultured in Ham's F-12 Nutrient Mixture supplemented with 10% fetal call serum and 1% penicillin/streptomycin. Cells were seeded to 96-well Wallac (Gaithersburg, Md.) rigid crosstalk corrected cell culture plate 1 day before experiment. On the day of each experiment, cells were washed twice with phosphate buffered saline (PBS) and appropriate agonists or antagonists were added and incubated in 0.2 nM ^125I-labeled ligand in PBS containing 0.4 mg/mL BSA, 0.08 mg/mL bacitracin, 0.004 mg/mL chymostatin, 0.004 mg/mL leupeptin, 1 μM thiorphan, 25 μM phosphoramidon, and 2 mM MnCl2. The cells were incubated for 1 hour at room temperature and the reactions terminated by two washes with ice cold PBS. Fifty microliters of 2% SDS followed by 175 μL of Ready Gel (Beckman) were added to each well. Plates were vortexed, and the radioactivity was quantified in a Wallac 1450 microbeta scintillation counter. Nonspecific binding was determined in the presence of 1 μM unlabeled corresponding ligand. Receptor binding data were analyzed with nonlinear curve fitting using KaleidaGraph software package (PCS Inc., Reading, Pa.). IC50 values were determined using a modified Hill equation, [formula]
# (§3) where cold ligand represents unlabeled ligand, L represents the concentration of unlabeled ligand, n the Hill coefficient, and IC50 the concentration of unlabeled ligand that causes 50% inhibition of the total specific binding of 0.2 nM radiolabeled ligand.
# NK3 receptors [1] = target: T2, NK3 receptors (Homo sapiens, UniProt P29371); assay: Receptor binding in transfected CHO cells (125I-labeled ligand displacement), NK3; conditions: CHO cells expressing human NK3; 0.2 nM 125I-labeled ligand; 1 hour at room temperature
# T2 construct: expressed in transfected cells; host or cells: CHO cells
# T2 sequence (P29371 1-465): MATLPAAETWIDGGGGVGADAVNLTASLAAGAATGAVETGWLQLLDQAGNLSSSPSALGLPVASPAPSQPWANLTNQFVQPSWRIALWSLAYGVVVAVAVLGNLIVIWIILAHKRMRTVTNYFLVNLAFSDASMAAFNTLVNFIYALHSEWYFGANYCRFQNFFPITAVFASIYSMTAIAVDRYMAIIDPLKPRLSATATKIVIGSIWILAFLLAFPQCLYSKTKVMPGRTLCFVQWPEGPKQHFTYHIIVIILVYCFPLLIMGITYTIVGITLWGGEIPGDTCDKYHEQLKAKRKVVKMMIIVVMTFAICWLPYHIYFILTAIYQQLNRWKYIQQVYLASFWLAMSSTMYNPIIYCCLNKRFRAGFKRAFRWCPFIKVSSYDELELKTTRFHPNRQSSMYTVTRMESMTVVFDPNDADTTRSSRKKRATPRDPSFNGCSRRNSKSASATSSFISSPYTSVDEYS
# Procedure: as §1, §2, §3
# [2] = Pharmacokinetics in male Wistar rats after an oral dose; assay type: in vivo; conditions: oral dose of ~20 mg/kg, solution in PEG 400/Ethanol/Water (40/15/45); for AUC / Cmax / Tmax / half-life: rat, plasma; for AUC: read-out: AUC(0-tldc) (area under the plasma concentration-time curve from zero time to the last detectable concentration); for Cmax: read-out: Cmax (the highest plasma concentration); for Tmax: read-out: tmax (time to reach the highest plasma concentration); for half-life: read-out: t½ (terminal elimination half-life) (converted)
# NK3 receptors [3] = target: T2, NK3 receptors; assay: Inhibition of agonist-induced phosphatidylinositol turnover (inositol phosphates accumulation) in transfected CHO cells; assay type: cell-based; conditions: CHO cells expressing NK3 receptors; 1 μM of tested compounds; pKB=log(dose ratio−1)−log[B]
# Procedure: 2. Inhibition of Phosphatidylinositol Turnover in Transfected CHO Cells
# The inhibitory effects of these compounds on agonist-induced phosphatidylinositol turnover was estimated by measuring their effects on inositol phosphates (IP) accumulation in CHO cells expressing NK3 receptors. Briefly, cells (10,000/well) were seeded in 96-well cell culture plates 24 hours before changing medium to EMEM/F-12 (w/Earle's salt, w/glutamine; GIBCOL) containing 10 μCi/mL [^3H]inositol. After overnight incubation with [^3H]inositol, medium was removed and cells were washed twice with assay buffer (MEM with 10 mM LiCl, 20 mM HEPES, and 1 mg/mL BSA). Cells were then incubated with various concentrations of agonists with or without 1 μM of tested compounds for 1 hour. Reactions were stopped by two washes with ice-cold PBS followed by the addition of 0.1 mL ice-cold 5% TCA to each well. The TCA extract was applied to a […] column containing AG 1-X8 resin (Bio-Rad) and washed three times with 5 mM myo-inositol. Inositol phosphates (IP) was eluted with 1 M ammonium formate/0.1 M formic acid. Radioactivity was determined by liquid scintillation counting. Data were analyzed with nonlinear curve fitting using KaleidaGraph software package (PCS Inc, Reading, Pa.). The pKB values in Table 2 were calculated according to the formula: pKB=log(dose ratio−1)−log[B].
# T1 sequence (P25103 whole entry): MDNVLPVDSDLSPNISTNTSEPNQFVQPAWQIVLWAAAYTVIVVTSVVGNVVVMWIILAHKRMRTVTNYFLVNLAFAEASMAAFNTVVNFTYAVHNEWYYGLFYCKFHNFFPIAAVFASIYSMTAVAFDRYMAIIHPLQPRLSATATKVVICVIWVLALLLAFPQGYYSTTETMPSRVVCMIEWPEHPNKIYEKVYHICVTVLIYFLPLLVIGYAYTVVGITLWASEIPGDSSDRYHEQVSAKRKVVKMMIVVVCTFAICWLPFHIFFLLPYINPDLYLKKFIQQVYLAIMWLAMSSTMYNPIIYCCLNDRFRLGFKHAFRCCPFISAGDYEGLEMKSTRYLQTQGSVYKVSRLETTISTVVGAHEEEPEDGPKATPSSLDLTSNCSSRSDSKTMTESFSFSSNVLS
IC50 (human NK1 receptors) [nM],IC50 (NK3 receptors [1]) [nM],AUC ([2]; mean (SD)) [ng·h/mL],Cmax ([2]; mean (SD)) [ng/mL],Tmax ([2]; mean) [h],tmax (time to reach the highest plasma concentration) ([2]; mean) [h],AUC(0-tldc) (area under the plasma concentration-time curve from zero time to the last detectable concentration) ([2]; mean (SD)),Cmax (the highest plasma concentration) ([2]; mean (SD)),pKB (NK3 receptors [3]),Compound,half-life ([2]; mean) [h],Kb (NK3 receptors [3]) [nM]
> 1000,5.9 ± 0.4,,,,,,,,"Cl.O=C(c1ccccc1)N1CCCC(CCCN2CCC(O)(CS(=O)(=O)c3ccccc3)CC2)(c2ccc(Cl)c(Cl)c2)C1 (centres unmarked) [Compound 20-1, {3-[3-(4-Benzensulfonylmethyl-4-hydroxy-piperidin-1-yl]-3-(3,4-dichlorophenyl)-piperidin-1-yl}-phenyl-methanone monohydrochloride]",,
,,,,,1.3,366 (140) ng · hr/mL,74.0 (12.9) ng/mL,8.2 ± 0.4,Cl.O=C(c1ccccc1)N1CCCC(CCCN2CCC(O)(CS(=O)(=O)c3ccccc3)CC2)(c2ccc(Cl)c(Cl)c2)C1 (centres unmarked) [Compound 20-1],,
694 ± 89,17.8 ± 1.5,572,107,1.8,,,,,"Cl.O=C(c1ccccc1)N1CCCC(CCCN2CCC(c3ccccc3)CC2)(c2ccc(Cl)c(Cl)c2)C1 (centres unmarked) [Compound 20-3, {3-(3,4-Dichlorophenyl)-3-[3-(4-phenyl-piperidin-1-yl)-propyl]-piperidin-1-yl}-phenyl-methanone monohydrochloride]",,12.6
,,703,133,1.8,,,,,"CC(=O)N(C)C1(c2ccccc2)CCN(CCC[C@]2(c3ccc(Cl)c(Cl)c3)CCCN(C(=O)c3ccccc3)C2)CC1 [SR 142801, reference compound]",5.3,

Compound,IC50 (human NK1 receptors) [nM],IC50 (NK3 receptors [1]) [nM],AUC ([2]; mean (SD)) [ng·h/mL],Cmax ([2]; mean (SD)) [ng/mL],Tmax ([2]; mean) [h],tmax (time to reach the highest plasma concentration) ([2]; mean) [h],AUC(0-tldc) (area under the plasma concentration-time curve from zero time to the last detectable concentration) ([2]; mean (SD)),Cmax (the highest plasma concentration) ([2]; mean (SD)),pKB (NK3 receptors [3]),half-life ([2]; mean) [h],Kb (NK3 receptors [3]) [nM]
"Cl.O=C(c1ccccc1)N1CCCC(CCCN2CCC(O)(c3ccccc3)CC2)(c2ccc(Cl)c(Cl)c2)C1 (centres unmarked) [Compound 20-2, {3-(3,4-Dichlorophenyl)-3-[3-(4-hydroxy-4-phenyl-piperidin-1-yl)-propyl]-piperidin-1-yl}-phenyl-methanone monohydrochloride]",> 1000,6.2 ± 0.6,716,125,1.3,,,,,7.4,5.01
